# “And” between values parts separate entries of the source, which are not always exact repeats. Identical values can stand only once.
# Assays:
# wild type tobacco plants = assay: Glasshouse spray trial, % injury; type: in vivo, Nicotiana tabacum; conditions: 7DAT, 100 gAI/ha spray; individual WT plants; 100% = bleaching as wild type
# Description: (§1) T0 Tobacco plants containing either the gene from Arabidopsis coding for HPPD or the gene FMP27e from Kordia algicida coding for FMP27 HPPD, mentioned above (Example 3), were transferred to the glasshouse (28/20° C.), to develop further and produce seeds. Those seeds were harvested and put on soil (ED73 mixed with sand and osmocote Pro) to germinate in the glasshouse (28/20° C.). Three to four weeks later, plantlets were transferred to single pots containing the soil mentioned above. Two weeks later, plants of a size 4-6 cm diameter were sprayed with either • tembotrione at 100 gAI/ha prepared from a WP20 (wettable powder 20%) formulation supplemented with ammonium sulfate and methyl ester raps oil, or • isoxaflutole at 100 gAI/ha prepared from a WP20 formulation supplemented with ammonium sulfate and methyl ester raps oil, or • bicyclopyrone at 100 gAI/ha prepared from a WP20 formulation supplemented with ammonium sulfate and methyl ester raps oil, or • “blind formulation” made from a WP20 formulation without active ingredient (AI) supplemented with ammonium sulfate and methyl ester raps oil, and were then transferred to a growth chamber with adequate light conditions (20000 Lux).
# (§2) Table 6: Wild type tobacco plants (A) and T1 populations of tobacco events containing alternatively, the expression cassettes described above having the promoter CaMV 35S, the sequence coding for OTP and the sequence coding for Arabidopsis HPPD (B) or the promoter CaMV35S, the sequence encoding OTP, and the sequence FMP27e coding for the HPPD FMP27 (C). Assessments of herbicidal damage at 7 days after application (DAT) per spray with 100 g AI/ha of tembotrione or isoxaflutole supplemented with ammonium sulfate and methyl ester raps oil. […] Plants belonging to categories (B) and (C) have not been selected for the presence of the respective transgene prior to the herbicide application.
# [1] = tested on: T1 tobacco plants containing FMP27e (Kordia algicida HPPD FMP27); assay: Glasshouse spray trial, % injury; type: in vivo, Nicotiana tabacum; conditions: 7DAT, 100 gAI/ha spray
# Description: as §1, §2
# [2] = tested on: T1 tobacco plants containing Arabidopsis HPPD; assay: Glasshouse spray trial, % injury; type: in vivo, Nicotiana tabacum; conditions: 7DAT, 100 gAI/ha spray
# Description: as §1, §2
# wild-type soybean shoots = assay: Soybean shoot greening on isoxaflutole selection; type: cell-based; conditions: same amount of isoxaflutole
# Source text: (§3) Soybean transformation was achieved using methods well known in the art, such as the one described using the Agrobacterium tumefaciens mediated transformation soybean half-seed explants described by Paz et al. (2006, Plant cell Rep. 25:206). Transformants were identified using Isoxaflutole as selection marker. The appearance of green shoots was observed, and documented as an indicator of tolerance to the herbicide isoxaflutole. […] Tolerant green shoots were transferred to rooting media or grafted. Rooted plantlets were transferred to the glasshouse after an acclimation period.
# [3] = tested on: transgenic soybean shoots (FMP27 protein); assay: Soybean shoot greening on isoxaflutole selection; type: cell-based; conditions: isoxaflutole as selection marker
# Source text: as §3
smiles,measurement,setting,value
"CS(=O)(=O)c1cc(C(F)(F)F)ccc1C(=O)c1cnoc1C1CC1 [Isoxaflutole, (5-cyclopropyl-4-isoxazolyl)[2-(methylsulfonyl)-4-(trifluoromethyl)phenyl]methanone]",% injury,wild type tobacco plants,99% (2×) and 100% (4×) and 98%
same,% injury,"[1]; line 121, individual T1 plants",0% (4×) and 1% and 2% and 20%
same,% injury,"[1]; line 129, individual T1 plants",0% (4×) and 1% (3×) and 2% (3×) and 5% and 10% (2×)
same,% injury,"[1]; line 218, individual T1 plants",0% (9×) and 1% (3×) and 2% and 3% and 5%
same,% injury,"[2]; line 252, individual T1 plants",30% and 70% and 95% and 98% (2×) and 99% (4×) and 100% (4×)
same,% injury,"[2]; line 258, individual T1 plants",100%
same,% injury,"[2]; line 327, individual T1 plants",10% and 20% and 60% (2×) and 70% and 80% and 95% and 98% and 99% and 100% (6×)
same,appearance of shoots treated with isoxaflutole,wild-type soybean shoots,entirely bleached
same,transgenic tested shoots showing normal greening,[3],1%

# — patent US20150159169A1, “Plants Tolerant to HPPD Inhibitor Herbicides” (Bayer CropScience AG, priority 2009, published 2015)
